Assay: Rate of dissolution in H2O at 25° C. of rebaudioside A polymorph and amorphous forms
Format: physicochemical
Conditions: within 60 minutes
From the text: The purification of rebaudioside A by crystallization as described above results in the formation of at least three different polymorphs: Form 1: a rebaudioside A hydrate; Form 2: an anhydrous rebaudioside A; and Form 3: a rebaudioside A solvate. In addition to the at least three polymorph forms of rebaudioside A, the purification of rebaudioside A may result in the formation of an amorphous form of rebaudioside A, Form 4. The aqueous organic solution and temperature of the purification process influence the resulting polymorph and amorphous forms in the substantially pure rebaudioside A composition. FIGS. 1-5 are exemplary powder x-ray diffraction (XRPD) scans of the polymorph and amorphous forms Form 1 (hydrate), Form 2 (anhydrate), Form 3A (methanol solvate), Form 3B (ethanol solvate), and Form 4 (amorphous), respectively.

Substance: rebaudioside A [Form 1]
- Rate of dissolution in H2O at 25° C.: Very low (<0.2%/ %/60 minutes
